# According to paper PMC9185959, “A nutraceutical product, extracted from Cannabis sativa, modulates voltage-gated sodium channel function” (Journal of Cannabis Research, 2022):
# Assays:
# Experiment in all cases: automated planar patch-clamp, whole-cell peak current
# Format in all cases: cell-based
# NaV1.2 = target: T1, NaV1.2 (Homo sapiens, UniProt Q99250); conditions: holding -80 mV, 200 ms at -120 mV then test pulse to 0 mV every 2 s; 5 min exposure, cumulative 0.1-100 μM; 0.1% DMSO; pH 7.4; 27°C; n=6
# T1 construct: gene SCN2A; full-length channel, stably expressed in HEK293T cells; splice form and beta subunits not mentioned
# Excerpt: automated planar patch-clamp, whole-cell peak current on NaV1.2
# NaV1.1 = target: T2, NaV1.1 (Homo sapiens, UniProt P35498); conditions: holding -80 mV, 200 ms at -120 mV then test pulse to 0 mV every 2 s; 5 min exposure, cumulative 0.1-100 μM; 0.1% DMSO; pH 7.4; 27°C; n=9
# T2 construct: gene SCN1A; full-length channel, stably expressed in HEK293T cells; beta subunits not mentioned
# Excerpt: automated planar patch-clamp, whole-cell peak current on NaV1.1
# NaV1.7 = target: T3, NaV1.7 (Homo sapiens, UniProt Q15858); conditions: holding -80 mV, 200 ms at -120 mV then test pulse to 0 mV every 2 s; 5 min exposure, cumulative 0.1-100 μM; 0.1% DMSO; pH 7.4; 27°C; n=7
# T3 construct: gene SCN9A; full-length channel, stably expressed in HEK293T cells; beta subunits not mentioned
# Excerpt: automated planar patch-clamp, whole-cell peak current on NaV1.7
# T1 sequence (Q99250 whole entry, canonical isoform): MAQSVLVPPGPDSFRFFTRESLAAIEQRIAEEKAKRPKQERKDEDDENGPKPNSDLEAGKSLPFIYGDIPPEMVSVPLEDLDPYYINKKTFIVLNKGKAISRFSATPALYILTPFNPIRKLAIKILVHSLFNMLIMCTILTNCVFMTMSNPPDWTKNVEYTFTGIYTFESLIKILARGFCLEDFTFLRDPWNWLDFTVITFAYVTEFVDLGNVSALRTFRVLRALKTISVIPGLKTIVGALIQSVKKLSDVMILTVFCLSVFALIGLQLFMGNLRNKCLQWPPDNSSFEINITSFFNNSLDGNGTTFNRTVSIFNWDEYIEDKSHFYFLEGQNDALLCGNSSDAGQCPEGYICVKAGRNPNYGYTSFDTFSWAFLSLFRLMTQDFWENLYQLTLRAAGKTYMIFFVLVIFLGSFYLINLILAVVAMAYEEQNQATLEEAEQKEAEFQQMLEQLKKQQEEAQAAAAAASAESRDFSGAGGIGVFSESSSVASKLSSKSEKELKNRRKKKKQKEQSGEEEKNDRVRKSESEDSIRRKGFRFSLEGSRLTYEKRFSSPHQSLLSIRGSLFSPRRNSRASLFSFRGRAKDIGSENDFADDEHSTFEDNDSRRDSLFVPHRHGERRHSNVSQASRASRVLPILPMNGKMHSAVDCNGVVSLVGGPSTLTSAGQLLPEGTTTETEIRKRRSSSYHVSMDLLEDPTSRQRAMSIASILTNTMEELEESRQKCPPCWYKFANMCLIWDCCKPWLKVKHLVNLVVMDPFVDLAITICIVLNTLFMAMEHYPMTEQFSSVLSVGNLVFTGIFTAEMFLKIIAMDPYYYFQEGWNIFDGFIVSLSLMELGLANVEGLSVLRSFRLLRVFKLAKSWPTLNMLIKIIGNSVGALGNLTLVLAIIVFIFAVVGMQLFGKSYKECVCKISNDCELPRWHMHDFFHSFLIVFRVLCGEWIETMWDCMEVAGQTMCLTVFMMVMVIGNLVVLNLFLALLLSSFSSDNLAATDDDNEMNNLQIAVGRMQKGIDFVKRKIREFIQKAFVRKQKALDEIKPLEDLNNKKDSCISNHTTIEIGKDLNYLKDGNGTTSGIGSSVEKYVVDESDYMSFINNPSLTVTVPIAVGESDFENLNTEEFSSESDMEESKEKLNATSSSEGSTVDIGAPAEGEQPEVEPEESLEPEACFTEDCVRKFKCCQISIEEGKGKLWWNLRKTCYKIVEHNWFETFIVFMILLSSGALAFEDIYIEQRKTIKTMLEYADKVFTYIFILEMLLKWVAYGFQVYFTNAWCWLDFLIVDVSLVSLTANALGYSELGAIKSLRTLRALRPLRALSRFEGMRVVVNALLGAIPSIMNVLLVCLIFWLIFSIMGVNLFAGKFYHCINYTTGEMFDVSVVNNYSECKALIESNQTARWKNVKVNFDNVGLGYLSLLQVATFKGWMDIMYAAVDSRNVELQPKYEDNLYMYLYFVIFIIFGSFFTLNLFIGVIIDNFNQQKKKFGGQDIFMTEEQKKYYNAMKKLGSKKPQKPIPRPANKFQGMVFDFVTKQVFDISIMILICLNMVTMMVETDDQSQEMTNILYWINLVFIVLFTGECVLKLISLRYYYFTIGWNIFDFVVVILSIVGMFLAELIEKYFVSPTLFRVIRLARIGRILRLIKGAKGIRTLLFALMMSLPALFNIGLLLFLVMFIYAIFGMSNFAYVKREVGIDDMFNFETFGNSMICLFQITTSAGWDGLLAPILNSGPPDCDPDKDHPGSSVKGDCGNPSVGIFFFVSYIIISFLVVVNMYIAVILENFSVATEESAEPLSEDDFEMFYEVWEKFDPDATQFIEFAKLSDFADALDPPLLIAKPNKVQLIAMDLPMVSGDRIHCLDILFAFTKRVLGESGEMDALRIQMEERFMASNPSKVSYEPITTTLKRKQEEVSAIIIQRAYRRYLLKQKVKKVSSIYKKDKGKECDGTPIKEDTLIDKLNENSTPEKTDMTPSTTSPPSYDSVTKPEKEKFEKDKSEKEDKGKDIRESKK
# T3 sequence (Q15858 whole entry): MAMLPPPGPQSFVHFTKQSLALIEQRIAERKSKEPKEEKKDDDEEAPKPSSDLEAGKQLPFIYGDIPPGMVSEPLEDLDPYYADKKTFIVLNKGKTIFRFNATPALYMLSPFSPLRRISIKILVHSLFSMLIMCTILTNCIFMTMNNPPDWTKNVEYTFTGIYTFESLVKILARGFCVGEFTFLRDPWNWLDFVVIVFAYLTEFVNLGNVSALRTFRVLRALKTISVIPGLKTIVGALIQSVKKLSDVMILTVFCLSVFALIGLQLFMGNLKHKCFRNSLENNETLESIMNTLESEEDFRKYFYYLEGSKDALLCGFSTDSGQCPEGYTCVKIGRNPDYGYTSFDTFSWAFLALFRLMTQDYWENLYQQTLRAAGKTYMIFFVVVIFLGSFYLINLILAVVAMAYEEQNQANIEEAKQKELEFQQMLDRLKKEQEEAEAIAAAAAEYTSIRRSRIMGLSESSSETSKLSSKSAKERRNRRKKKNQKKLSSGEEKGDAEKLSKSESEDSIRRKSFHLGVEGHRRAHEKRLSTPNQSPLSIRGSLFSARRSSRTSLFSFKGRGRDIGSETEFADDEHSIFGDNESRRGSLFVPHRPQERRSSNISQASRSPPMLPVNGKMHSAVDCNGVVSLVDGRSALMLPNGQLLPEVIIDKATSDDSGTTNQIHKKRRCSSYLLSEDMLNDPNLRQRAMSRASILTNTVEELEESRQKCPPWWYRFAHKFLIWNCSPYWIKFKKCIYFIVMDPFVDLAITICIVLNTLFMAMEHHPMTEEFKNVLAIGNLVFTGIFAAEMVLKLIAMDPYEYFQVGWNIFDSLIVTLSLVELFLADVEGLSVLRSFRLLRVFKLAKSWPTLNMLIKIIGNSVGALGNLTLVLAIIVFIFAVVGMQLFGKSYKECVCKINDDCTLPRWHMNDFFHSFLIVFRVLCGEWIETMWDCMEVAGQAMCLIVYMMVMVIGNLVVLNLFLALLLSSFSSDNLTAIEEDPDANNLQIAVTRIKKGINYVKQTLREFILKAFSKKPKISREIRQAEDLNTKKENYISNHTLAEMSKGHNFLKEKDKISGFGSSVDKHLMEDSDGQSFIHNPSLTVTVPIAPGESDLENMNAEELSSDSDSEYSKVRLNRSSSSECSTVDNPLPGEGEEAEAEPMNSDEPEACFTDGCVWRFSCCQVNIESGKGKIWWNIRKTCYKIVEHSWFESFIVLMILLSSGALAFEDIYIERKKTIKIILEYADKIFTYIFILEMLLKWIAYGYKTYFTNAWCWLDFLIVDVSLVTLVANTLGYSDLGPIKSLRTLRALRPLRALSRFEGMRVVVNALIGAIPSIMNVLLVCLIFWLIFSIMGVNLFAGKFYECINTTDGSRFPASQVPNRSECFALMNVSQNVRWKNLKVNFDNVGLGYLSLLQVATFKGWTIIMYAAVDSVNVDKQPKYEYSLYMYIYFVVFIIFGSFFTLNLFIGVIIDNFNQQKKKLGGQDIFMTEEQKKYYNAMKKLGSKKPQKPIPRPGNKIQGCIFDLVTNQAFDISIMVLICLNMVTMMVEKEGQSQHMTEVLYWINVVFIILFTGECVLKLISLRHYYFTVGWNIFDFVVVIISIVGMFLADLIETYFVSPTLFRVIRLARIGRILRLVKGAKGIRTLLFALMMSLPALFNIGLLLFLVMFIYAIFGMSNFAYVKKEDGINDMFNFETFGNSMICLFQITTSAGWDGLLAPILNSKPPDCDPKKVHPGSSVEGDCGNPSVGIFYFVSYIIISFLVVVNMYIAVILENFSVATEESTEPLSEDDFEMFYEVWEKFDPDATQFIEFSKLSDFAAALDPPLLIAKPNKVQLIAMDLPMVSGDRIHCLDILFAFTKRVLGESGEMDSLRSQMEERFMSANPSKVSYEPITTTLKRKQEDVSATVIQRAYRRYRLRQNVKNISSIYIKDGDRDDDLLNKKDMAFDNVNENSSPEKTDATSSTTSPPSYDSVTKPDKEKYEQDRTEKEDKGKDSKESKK
compound,measurement,setting,value
C=C(C)[C@@H]1CCC(C)=C[C@H]1c1c(O)cc(CCCCC)cc1O [CBD],IC50,NaV1.2,18.4 ± 2.6 µM
same,IC50,NaV1.1,18.5 ± 2.2 µM
same,IC50,NaV1.7,11.9 ± 2.2 µM
